The results in this text go back to US20240269298A1, “PHOSPHONYL DERIVATIVE, AND COMPOSITION AND PHARMACEUTICAL APPLICATION THEREOF” (XIZANG HAISCO PHARMACEUTICAL CO., LTD., priority 2021, published 2024).

One data set has as its system A431 (EGFR-WT) cells. Put plainly: Inhibitory activity on proliferation of A431 (EGFR-WT) cells (CTG, 72 h). The note with it: Homo sapiens, A-431. Format: cell-based. An outline of the steps:
(§1)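 Cells plated at 1000/well (NCI-H1975, RPMI1640+10% FBS) or 3000/well (A431, DMEM+10% FBS), dosed next day with compounds (0.1% DMSO final) for 72 h at 37 °C, 5% CO2. Viability by CTG luminescence, normalised to vehicle control; IC50 from nonlinear-regression dose-survival curves.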

Data set [1] can be described thus: Pharmacokinetic test in mice. It is filed as in vivo. Conditions: male, ICR, mouse, po, administration i.g. (10 mg/kg), plasma. Here is the method:
Test objective: In this experiment, a single dose of test compounds was administered to ICR mice intravenously and intragastrically, the concentrations of the test compounds in plasma of mice were measured, and the pharmacokinetic characteristics and bioavailability of the test compounds in mice were evaluated.
Experimental animals: male ICR mice, 20-25 g, purchased from BEIJING HFK BIOSCIENCE CO., LTD. with the laboratory animal production license number of SCXK (JING) 2019-0008; or purchased from CHENGDU DDOSSY EXPERIMENTAL ANIMALS CO., LTD. (SCXK (CHUAN) 2020-030); or purchased from HUNAN SJA LABORATORY ANIMAL CO., LTD. (SCXK (XIANG) 2019-0004).
Experimental method: on the day of the experiment, ICR mice were randomly grouped according to their body weights. The mice were fasted with water available for 12 to 14 hours one day before the administration, and were fed 4 hours after the administration.
Sampling: before and after the administration, blood was taken from the orbits of the mice under isoflurane anesthesia, and placed in an EDTAK2 centrifuge tube. Centrifugation was carried out at 5000 rpm at 4° C. for 10 min, and the plasma was collected.
Time points for plasma collection in G1&G2 groups: 0, 5 min, 15 min, 30 min, 1h, 2h, 4h, 6h, 8h, and 24 h; • time points for plasma collection in G3 group: 0, 5 min, 15 min, 30 min, 1 h, 2 h, 4 h, 6h, 8h, and 24 h; • before analysis and detection, all samples were stored at −80° C. The samples were analyzed quantitatively by LC-MS/MS.

For data set [2], the system named is NCI-H1975 (EGFR-L858R-T790M) cells. The data set can be described thus: Inhibitory activity on proliferation of NCI-H1975 (EGFR-L858R-T790M) cells (CTG, 72 h). It is filed as cell-based. The note with it: Homo sapiens. The essentials:
as §1

[3] abbreviates: read-out: IC50 (value in brackets).

Where two headings read alike, the source gives them in different places. Where only a bound is given, the exact number is not on record here.

As for `COc1cc(N2CCC(N3CCN(CC4CCN(c5ccc6c(c5)C(=O)N(C5CCC(=O)NC5=O)C6=O)CC4)CC3)CC2)c(-c2cnn(C)c2)cc1Nc1ncc(Br)c(Nc2ccc(C)c(C)c2P(C)(C)=O)n1` (centres unmarked) [Compound 73, 5-(4-((4-(1-(4-((5-bromo-4-((2-(dimethylphosphoryl)-3,4-dimethylphenyl)amino)pyrimidin-2-yl)amino)-5-methoxy-2-(1-methyl-1H-pyrazol-4-yl)phenyl)piperidin-4-yl)piperazin-1-yl)methyl)piperidin-1-yl)-2-(2,6-dioxopiperidin-3-yl)isoindoline-1,3-dione], the half-inhibitory concentration (IC50) (commonly the point on the concentration scale where inhibition reaches its midpoint) is at least 10000 nM in the data set on A431 (EGFR-WT) cells, under 100 nM in data set [2] (read-out: IC50 (class symbol)) and 26 nM in data set [2] (setting [3]). Besides, in data set [1], the AUC(0-t) (in general, exposure summed from dosing to a finite time, without extrapolation to infinity) is 13700 ng·h/mL.

Regarding `COc1cc(N2CCC(N3CCN(CC4CCN(c5ccc6c(c5)C(=O)N(C5CCC(=O)NC5=O)C6=O)C4)CC3)CC2)c(-c2cnn(C)c2)cc1Nc1ncc(Br)c(Nc2ccc(-c3ccccc3)cc2P(C)(C)=O)n1` (centres unmarked) [Compound 76, 5-(3-((4-(1-(4-((5-bromo-4-((3-(dimethylphosphoryl)-[1,1′-biphenyl]-4-yl)amino)pyrimidin-2-yl)amino)-5-methoxy-2-(1-methyl-1H-pyrazol-4-yl)phenyl)piperidin-4-yl)piperazin-1-yl)methyl)pyrrolidin-1-yl)-2-(2,6-dioxopiperidin-3-yl)isoindoline-1,3-dione], the values for the IC50 (in the data set with A431 (EGFR-WT) cells; in data set [2] (read-out: IC50 (class symbol)); in data set [2] (setting [3])) were at least 10000 nM, under 100 nM and 31 nM, respectively. The compound further showed an area under the curve AUC(0-t) in data set [1] of 19600 ng·h/mL.

`COc1cc(N2CCN(c3ccc4c(c3)C(=O)N(C3CCC(=O)NC3=O)C4=O)CC2)c(-c2cnn(C)c2)cc1Nc1ncc(Br)c(Nc2ccc(-c3ccccc3)cc2P(C)(C)=O)n1` (centres unmarked) [Compound 80, 5-(4-(4-((5-bromo-4-((3-(dimethylphosphoryl)-[1,1′-biphenyl]-4-yl)amino)pyrimidin-2-yl)amino)-5-methoxy-2-(1-methyl-1H-pyrazol-4-yl)phenyl)piperazin-1-yl)-2-(2,6-dioxopiperidin-3-yl)isoindoline-1,3-dione]: the IC50 was at least 10000 nM in the data set on A431 (EGFR-WT) cells, 100 to 500 nM in data set [2] (read-out: IC50 (class symbol)) and 129 nM in data set [2] (setting [3]). Also, the AUC – broadly, concentration integrated over time – in data set [1] amounted to 81900 ng·h/mL. The half-life (in general, the time needed for the level to fall by half in the phase considered) in data set [1] was 10.4 h.

Consider `COc1cc(N2CCC(N3CCN(CC4CCN(c5cc6c(cc5F)C(=O)N(C5CCC(=O)NC5=O)C6=O)CC4)CC3)CC2)c(-c2cnn(C)c2)cc1Nc1ncc(Br)c(Nc2ccc(-c3ccccc3)cc2P(C)(C)=O)n1` (centres unmarked) [Compound 87, 5-(4-((4-(1-(4-((5-bromo-4-((3-(dimethylphosphoryl)-[1,1′-biphenyl]-4-yl)amino)pyrimidin-2-yl)amino)-5-methoxy-2-(1-methyl-1H-pyrazol-4-yl)phenyl)piperidin-4-yl)piperazin-1-yl)methyl)piperidin-1-yl)-2-(2,6-dioxopiperidin-3-yl)-6-fluoroisoindoline-1,3-dione], for which the IC50 is at least 10000 nM in the data set on A431 (EGFR-WT) cells, under 100 nM in data set [2] (read-out: IC50 (class symbol)) and 45 nM in data set [2] (setting [3]). The compound further registered an exposure AUC(0-t) in data set [1] of 2340 ng·h/mL.

Take `COc1cc(N2CCC(N3CCC4(CCCN(c5cc6c(cc5F)C(=O)N(C5CCC(=O)NC5=O)C6=O)C4)CC3)CC2)c(-c2cnn(C)c2)cc1Nc1ncc(Br)c(Nc2ccc(-c3ccccc3)cc2P(C)(C)=O)n1` (centres unmarked) [Compound 88, 5-(9-(1-(4-((5-bromo-4-((3-(dimethylphosphoryl)-[1,1′-biphenyl]-4-yl)amino)pyrimidin-2-yl)amino)-5-methoxy-2-(1-methyl-1H-pyrazol-4-yl)phenyl)piperidin-4-yl)-2,9-diazaspiro[5.5]undecan-2-yl)-2-(2,6-dioxopiperidin-3-yl)-6-fluoroisoindoline-1,3-dione]: the half-maximal inhibitory concentration (IC50) with A431 (EGFR-WT) cells was at least 10000 nM; in data set [2] (read-out: IC50 (class symbol)), under 100 nM; in data set [2] (setting [3]) it was 67 nM. The same compound had an AUC(0-t) in data set [1] of 5120 ng·h/mL.

As for `COc1cc(N2CCC(CN3CCC4(CCCN(c5ccc6c(c5)C(=O)N(C5CCC(=O)NC5=O)C6=O)C4)CC3)CC2)c(-c2cnn(C)c2)cc1Nc1ncc(Cl)c(Nc2ccc(-c3ccccc3)cc2P(C)(C)=O)n1` (centres unmarked) [Compound 89, 5-(9-((1-(4-((5-chloro-4-((3-(dimethylphosphoryl)-[1,1′-biphenyl]-4-yl)amino)pyrimidin-2-yl)amino)-5-methoxy-2-(1-methyl-1H-pyrazol-4-yl)phenyl)piperidin-4-yl)methyl)-2,9-diazaspiro[5.5]undecan-2-yl)-2-(2,6-dioxopiperidin-3-yl)isoindoline-1,3-dione], the IC50 was at least 10000 nM in the data set on A431 (EGFR-WT) cells, under 100 nM in data set [2] (read-out: IC50 (class symbol)) and 84 nM in data set [2] (setting [3]). In data set [1], this compound showed an AUC(0-t) of 8430 ng·h/mL.

Consider `COc1cc(N2CCC(N3CCN(C4CC5(CCN(c6ccc7c(c6)C(=O)N(C6CCC(=O)NC6=O)C7=O)CC5)C4)CC3)CC2)c(-c2cnn(C)c2)cc1Nc1ncc(Cl)c(Nc2ccc(-c3ccccc3)cc2P(C)(C)=O)n1` (centres unmarked) [Compound 91], for which the IC50 in the data set on A431 (EGFR-WT) cells is at least 10000 nM; in data set [2] (read-out: IC50 (class symbol)), under 100 nM; in data set [2] (setting [3]), 78 nM. The compound also had an AUC(0-t) in data set [1] of 7580 ng·h/mL.

As for `COc1cc(N2CCC(N3CCN(CC4CCN(c5cc6c(cc5F)C(=O)N(C5CCC(=O)NC5=O)C6=O)CC4)CC3)CC2)c(-c2cnn(C)c2)cc1Nc1ncc(Cl)c(Nc2ccc(-c3ccccc3)cc2P(C)(C)=O)n1` (centres unmarked) [Compound 93, 5-(4-((4-(1-(4-((5-chloro-4-((3-(dimethylphosphoryl)-[1,1′-biphenyl]-4-yl)amino)pyrimidin-2-yl)amino)-5-methoxy-2-(1-methyl-1H-pyrazol-4-yl)phenyl)piperidin-4-yl)piperazin-1-yl)methyl)piperidin-1-yl)-2-(2,6-dioxopiperidin-3-yl)-6-fluoroisoindoline-1,3-dione], the IC50 in the data set with A431 (EGFR-WT) cells was at least 10000 nM; in data set [2] (read-out: IC50 (class symbol)), under 100 nM; in data set [2] (setting [3]), 49 nM. Moreover, the exposure AUC(0-t) in data set [1] amounted to 4620 ng·h/mL.

With `COc1cc(N2CCC(CN3CCC4(CC3)CCN(c3ccc5c(c3)C(=O)N(C3CCC(=O)NC3=O)C5=O)CC4)CC2)c(-c2cnn(C)c2)cc1Nc1ncc(Br)c(Nc2ccc(-c3ccccc3F)cc2P(C)(C)=O)n1` (centres unmarked) [Compound 95, 5-(9-((1-(4-((5-bromo-4-((3-(dimethylphosphoryl)-2′-fluoro-[1,1′-biphenyl]-4-yl)amino)pyrimidin-2-yl)amino)-5-methoxy-2-(1-methyl-1H-pyrazol-4-yl)phenyl)piperidin-4-yl)methyl)-3,9-diazaspiro[5.5]undecan-3-yl)-2-(2,6-dioxopiperidin-3-yl)isoindoline-1,3-dione], the half-maximal inhibitory concentration (IC50) in the data set with A431 (EGFR-WT) cells was at least 10000 nM; in data set [2] (read-out: IC50 (class symbol)) it was under 100 nM; in data set [2] (setting [3]), 49 nM. In data set [1], this compound displayed an AUC(0-t) of 20800 ng·h/mL.

Turning to `COc1cc(N2CCN(c3ccc4c(c3)C(=O)N(C3CCC(=O)NC3=O)C4=O)CC2)c(-c2cnn(C)c2)cc1Nc1ncc(Cl)c(Nc2ccc(-c3ccccc3)cc2P(C)(C)=O)n1` (centres unmarked) [Compound 98, 5-(4-(4-((5-chloro-4-((3-(dimethylphosphoryl)-[1,1′-biphenyl]-4-yl)amino)pyrimidin-2-yl)amino)-5-methoxy-2-(1-methyl-1H-pyrazol-4-yl)phenyl)piperazin-1-yl)-2-(2,6-dioxopiperidin-3-yl)isoindoline-1,3-dione], the figures for the 50% inhibitory concentration (IC50) (with A431 (EGFR-WT) cells; in data set [2] (read-out: IC50 (class symbol)); in data set [2] (setting [3])) were at least 10000 nM, 100 to 500 nM and 101 nM, respectively. Further, the AUC in data set [1] was 69800 ng·h/mL. Besides, the half-life in data set [1] was 10.9 h.

As for `COc1cc(N2CCC3(CCN(c4ccc5c(c4)C(=O)N(C4CCC(=O)NC4=O)C5=O)CC3)CC2)c(-c2cnn(C)c2)cc1Nc1ncc(Br)c(Nc2ccc(F)cc2P(C)(C)=O)n1` (centres unmarked) [Compound 163, 5-(9-(4-((5-bromo-4-((2-(dimethylphosphoryl)-4-fluorophenyl)amino)pyrimidin-2-yl)amino)-5-methoxy-2-(1-methyl-1H-pyrazol-4-yl)phenyl)-3,9-diazaspiro[5.5]undecan-3-yl)-2-(2,6-dioxopiperidin-3-yl)isoindoline-1,3-dione], the IC50 with A431 (EGFR-WT) cells is at least 10000 nM; in data set [2] (read-out: IC50 (class symbol)), under 100 nM; in data set [2] (setting [3]) it was 76 nM. Moreover, in data set [1], the AUC worked out at 93100 ng·h/mL. This compound also showed a half-life in data set [1] of 6.68 h.
